Literature values, collected in EP3290412A1, “HIV-1 NUCLEOCAPSID INHIBITORS” (Università degli Studi di Siena, priority 2016, dated 2018).

Test system: NIH Catalogue Number: 11845
Conditions: INI resistant strain 11845; cited from earlier work

COc1cc2c(cc1Cc1cccc(Cl)c1F)c(=O)c(C(=O)O)cn2[C@H](CO)C(C)C [Elvitegravir™, Elvitegravir]
Level of resistance: Intermediate
